The structures appear in SMILES notation.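 In this assay, cells in 96-well plates receive the compound at five concentrations for 48 hours. Endpoints are linearly interpolated between the surrounding concentrations. GI50 = concentration required for 50% inhibition of growth.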 Activity calls are given as the source filed them. No stated cut-off is given here; in the data, active = GI50 up to about 1.1 µM and inactive = higher.

Experimental findings from ChEMBL document CHEMBL1201862, “PubChem BioAssay data set” (2004) are described below.

Test in all cases: NCI-60 cell line screen, 48 h
For test [1], the system named is NCI-H226.
For test [2], the system named is NCI-H460.
The test system of test [3] is TK-10.
In test [4] the test system is CAKI-1.
Test [5] has as its system M14.
For test [6], the system named is MDA-MB-231.
In test [7] the test system is EKVX.
Test [8] relates to A498.
For test [9], the system named is CCRF-CEM.
Test [10] relates to MOLT-4.
Test [11] deals with A549.
In test [12] the test system is SNB-75.
Test [13] has as its system LOX IMVI.
The subject of test [14] is SK-OV-3.
Test [15] concerns K562.
The subject of test [16] is T47D.
In test [17] the test system is OVCAR-8.
Test [18] deals with U-251.
For test [19], the system named is ACHN.
Test [20] deals with SW-620.

On to `O=c1[nH]/c(=C/c2ccc(OCc3ccccc3)cn2)c(=O)[nH]/c1=C/c1ccc(Cl)cc1`, for which the GI50 in [1] was 35.1 µM (inactive); in test [2] it was 1.79 µM (inactive); in [3] it was 15.1 µM (inactive); in test [4], 0.45 µM (active); in test [5] it was 1.87 µM (inactive); in test [6], 46.1 µM (inactive). Moreover, the GI50 in [7] is > 100 µM (inactive); in [8], 0.7 µM (active); in test [9] it was 3.72 µM (inactive); in test [10], 1.52 µM (inactive); in [11], > 84.9 µM (inactive); in [12], 1.86 µM (inactive). The GI50 in test [13] was > 22.1 µM (inactive); in test [14] it was 4.47 µM (inactive); in test [15], 0.497 µM (active); in test [16], > 100 µM (inactive); in test [17], > 100 µM (inactive); in [18], 4.35 µM (inactive). For the same molecule, the GI50 in [19] was 4.24 µM (inactive); in [20], 1.55 µM (inactive).

Take `CCCNc1c(Cl)cc(Cl)c2[nH]c3ccccc3c(=O)c12`: the GI50 in [1] is 38.2 µM (inactive); in [3] it was 51.3 µM (inactive); in [4] it was 62.5 µM (inactive); in [5], 55.7 µM (inactive); in test [6], 77.1 µM (inactive); in test [7], 35.6 µM (inactive). Besides, the GI50 in [8] was 29.7 µM (inactive); in [9] it was 49.3 µM (inactive); in test [10], 32.5 µM (inactive); in [11], 35.1 µM (inactive); in [12], 31.5 µM (inactive); in [13], 33.7 µM (inactive). Besides, the GI50 in test [14] was 75.9 µM (inactive); in test [15] it was 28.3 µM (inactive); in test [16], > 100 µM (inactive); in test [17] it was 40.3 µM (inactive); in test [18] it was 37.1 µM (inactive); in test [19], 24 µM (inactive). Also, the GI50 in [20] is 88.5 µM (inactive).

In the case of `NNC(=O)CC(=O)Nc1ccc(Cl)cc1`, the GI50 in [1], in test [2], in test [3], in test [4], in test [6] and in test [7] was > 100 µM (inactive) in each case. The GI50 was > 100 µM (inactive) in test [8]; > 100 µM (inactive) in [9]; > 100 µM (inactive) in test [10]; > 100 µM (inactive) in [11]; > 100 µM (inactive) in [12]; 34.1 µM (inactive) in test [13]. The GI50 was > 100 µM (inactive) in [14]; 48.6 µM (inactive) in test [15]; > 100 µM (inactive) in test [16]; > 100 µM (inactive) in test [17]; > 100 µM (inactive) in [18]; 66.7 µM (inactive) in test [19]. For the same molecule, the GI50 in test [20] was > 100 µM (inactive).

In the case of `CC(C)N(c1cc2c(cc1F)c(=O)c(C(=O)O)cn2-c1ccc(N2CCN(C)CC2)cn1)C(C)C`, the GI50 in [1], in test [2], in test [3], in [4], in [5] and in [6] was > 100 µM (inactive) throughout. For the same molecule, the GI50 in [7], in [8], in test [9], in [10], in test [11] and in [12] was > 100 µM (inactive) throughout. In addition, the GI50 in [13], in [14], in test [15], in test [16], in [17] and in test [18] was > 100 µM (inactive) throughout. Moreover, the GI50 in test [20] was > 100 µM (inactive).

On to `Nc1nc(Cl)cc(NCC2(O)CCC2)n1`, for which the GI50 in [1], in [2], in test [3], in [4], in test [6] and in [7] was > 100 µM (inactive) throughout. Besides, the GI50 in [8] is > 100 µM (inactive); in [9], > 10 µM (inactive); in [10] it was > 100 µM (inactive); in [11], > 100 µM (inactive); in test [12], > 100 µM (inactive); in test [13], > 100 µM (inactive). Besides, the GI50 in [14], in test [15], in [16], in test [17], in test [18] and in [19] was > 100 µM (inactive) throughout. Also, the GI50 in test [20] was > 100 µM (inactive).

Regarding `Nc1nc(NCCCO)cc(=O)[nH]1`, the GI50 in [1], in test [2], in [4], in test [5], in test [6] and in test [7] was > 100 µM (inactive) in each case. For the same molecule, the GI50 in test [8], in test [9], in test [10], in test [11], in [12] and in test [13] was > 100 µM (inactive) in each case. Moreover, the GI50 in [14], in test [15], in test [16], in test [17], in test [18] and in test [19] was > 100 µM (inactive) throughout. Also, the GI50 in test [20] is > 100 µM (inactive).

Turning to `COc1ccc(Br)c(/C=N\c2cccc3cc(OC)c(OC)cc23)c1`, the GI50 was 39 µM (inactive) in test [1]; 35.5 µM (inactive) in test [2]; 28.1 µM (inactive) in test [3]; > 82.4 µM (inactive) in test [4]; 3.84 µM (inactive) in test [5]; 15.5 µM (inactive) in test [6]. For the same molecule, the GI50 in test [7] is 97.1 µM (inactive); in [8], > 78.5 µM (inactive); in test [9], 2.82 µM (inactive); in [10], 4.81 µM (inactive); in test [11] it was > 91.2 µM (inactive); in test [12], 38.8 µM (inactive). The GI50 in test [13] is 4.57 µM (inactive); in test [14], 55.1 µM (inactive); in [15], 3.52 µM (inactive); in [16], 58.5 µM (inactive); in test [17] it was 6.28 µM (inactive); in test [18], 2.99 µM (inactive). The figures for the GI50 in [19] and in test [20] were 25.5 µM (inactive) and 7.08 µM (inactive), respectively.

With `CC(=O)O[C@@H]1O[Si](C(C)(C)C)(C(C)(C)C)[C@H](C)[C@H]1C`, the GI50 was > 100 µM (inactive) in test [1]; > 100 µM (inactive) in test [3]; > 100 µM (inactive) in [4]; 38.6 µM (inactive) in test [5]; > 100 µM (inactive) in test [6]; 41.7 µM (inactive) in test [7]. The GI50 in [8] is > 100 µM (inactive); in test [9], 40.6 µM (inactive); in test [10], 20.8 µM (inactive); in test [11], 41 µM (inactive); in test [12], 6.62 µM (inactive); in test [13], 25.8 µM (inactive). The GI50 in [14] was > 100 µM (inactive); in test [15] it was 31.8 µM (inactive); in [16] it was > 100 µM (inactive); in test [17], > 100 µM (inactive); in [18], 43.7 µM (inactive); in test [19], > 100 µM (inactive). Also, the GI50 in test [20] is 40 µM (inactive).

For the molecule `C[C@]12CC(c3ccccc3O1)C(C#N)C(=O)N2` (stereo partly drawn), the GI50 in test [1], in test [2], in test [4], in [5], in [6] and in test [7] was > 100 µM (inactive) each time. For the same molecule, the GI50 in [8], in test [9], in test [10], in [11], in test [12] and in [13] was > 100 µM (inactive) throughout. The GI50 in [14], in [15], in test [16], in test [17], in [18] and in [19] was > 100 µM (inactive) throughout. Moreover, the GI50 in test [20] is > 100 µM (inactive).

In the case of `CC(/C=C/C(=O)NO)=C\C(C)C(=O)c1ccc(N(C)C)cc1` (stereo not drawn), the GI50 in [1] was 0.188 µM (active); in test [2], < 0.01 µM (active); in test [3], < 0.0177 µM (active); in test [4], 0.029 µM (active); in [5], 0.0668 µM (active); in [6], 0.0184 µM (active). Moreover, the GI50 in test [7] is 0.261 µM (active); in test [8], 0.0841 µM (active); in [9], < 0.01 µM (active); in [10], < 0.0135 µM (active); in test [11] it was < 0.0122 µM (active); in test [12], 0.0244 µM (active). Also, the GI50 was < 0.01 µM (active) in test [13]; 0.0498 µM (active) in test [14]; 0.0325 µM (active) in [15]; < 0.01 µM (active) in test [16]; < 0.01 µM (active) in test [17]; 0.0142 µM (active) in test [18]. Besides, the GI50 was 0.0231 µM (active) in [19] and < 0.01 µM (active) in [20].
